Laboratory results as given in patent publication US8940768B2, “Antifungal triazole derivatives” (Daewoong Pharmaceutical Co., Ltd., priority 2010, dated 2015).
≈ marks a conversion by molar mass, not a printed value.

Experiments:
Assay type in all cases: cell-based
[1] = tested on: Cryptococcus neoformans; experiment: in vitro antifungal activity (MIC80), Cryptococcus neoformans; conditions: 80% growth inhibition vs negative control, RPMI 1640, read 48 hrs after application
Description: (§1) The compounds of the present invention were evaluated for inhibitory activity against yeast molds including Candida albicans, Candida glabrata, Candida krusei, Candida tropicalis, Candida parapsilosis, and Cryptococcus neoformans, and filamentous fungi including Aspergillus fumigatus, Trichophyton mentagrophytes (obtained from KCTC (Korean Collection for Type Cultures), and Trichophyton rubrum (obtained from KCCM (Korean Culture Center of Microorganisms). All the strains, but Trichophyton mentagrophytes and Trichophyton rubrum, were purchased from the ATCC (American Type Culture Collection).
(§2) Of the strains used in this test, Candida albicans, Candida glabrata, Candida krusei, Candida tropicalis, Candida parapsilosis, Trichophyton mentagrophytes and Trichophyton rubrum were inoculated into sabouraud dextrose agars (Difco, BD-0109), Cryptococcus neoformans into a yeast mold agar (YM agar, Difco, 271210), and Aspergillus fumigatus into a malt extract agar (Difco, 211220), before incubation at 35° C. for two to ten days.
(§3) From the agars on which the yeast molds were grown, single colonies were picked up, and each was sufficiently suspended in 5 mL of already prepared, 0.85% sterile saline. After correction of the absorbance to 0.108 at 530 nm, each of the suspensions was diluted to a ratio of 1:50 in an RPMI (Roswell park memorial institute) 1640 medium and then to a ratio of 1:20 to prepare an inoculum having a cell density of from 1.0×10^3 to 5.0×10^3CFU/mL. The cell density was adjusted into […]˜5.0×10^4 CFU/mL for Aspergillus fumigates and 0.4×10^4˜5.0×10^4 CFU/mL for both Trichophyton mentagrophytes and Trichophyton rubrum.
(§4) The antifungal agent samples were prepared by diluting the active compounds in an RPMI 1640 medium to a serial density of from 0.0156 to 32 μg/mL. In this context, dimethylsulfoxide (DMSO) was used as an excipient at a final concentration of 1% (v/v). The serial dilutions were aliquoted at a volume of 0.1 mL and applied to 0.1 mL of the aliquots of each inoculum, followed by incubation.
(§5) With the naked eyes, an observation was made of all of the yeast molds, but Cryptococcus neoformans 24 hrs after the application, Cryptococcus neoformans and Aspergillus fumigatus 48 hrs after the application, and Trichophyton mentagrophytes and Trichophyton rubrum five days after the application to examine whether the fungi grew or not. In addition, Alamarblue™ as used to determine the concentrations of the compounds of the present invention at which the growth of the microorganisms was 80% inhibited compared to that of the negative control. All experiments were performed in duplicate for each of the test concentration groups.

[2] = tested on: Trichophyton mentagrophytes; experiment: in vitro antifungal activity (MIC80), Trichophyton mentagrophytes; conditions: 120 h, 80% growth inhibition vs negative control, RPMI 1640, read five days after application
Description: as §1, §2, §3, §4, §5

[3] = tested on: Trichophyton rubrum; experiment: in vitro antifungal activity (MIC80), Trichophyton rubrum; conditions: 120 h, 80% growth inhibition vs negative control, RPMI 1640, read five days after application
Description: as §1, §2, §3, §4, §5

[4] = tested on: Candida albicans; experiment: in vitro antifungal activity (MIC80), Candida albicans; conditions: 80% growth inhibition vs negative control, RPMI 1640, read 24 hrs after application, Table 1, read-out: Antifungal Activity (MIC80) C. albicans
[5] = tested on: Candida krusei; experiment: in vitro antifungal activity (MIC80), Candida krusei; conditions: Pichia kudriavzevii; 80% growth inhibition vs negative control; RPMI 1640; read 24 hrs after application; read-out: Antifungal Activity (MIC80) C. krusei
Description: as §1, §2, §3, §4, §5

[6] = tested on: Candida tropicalis; experiment: in vitro antifungal activity (MIC80), Candida tropicalis; conditions: 80% growth inhibition vs negative control, RPMI 1640, read 24 hrs after application, read-out: Antifungal Activity (MIC80) C. tropicalis
Description: as §1, §2, §3, §4, §5

[7] = tested on: Candida glabrata; experiment: in vitro antifungal activity (MIC80), Candida glabrata; conditions: Nakaseomyces glabratus, 24 h, read-out: Antifungal Activity (MIC80) C. grabrata
Description: as §1, §2, §3, §4, §5

[8] = tested on: Candida parapsilosis; experiment: in vitro antifungal activity (MIC80), Candida parapsilosis; conditions: Lodderomyces parapsilosis; 80% growth inhibition vs negative control; RPMI 1640; read 24 hrs after application; read-out: Antifungal Activity (MIC80) C. parapsilosis
Description: as §1, §2, §3, §4, §5

[9] = tested on: Aspergillus fumigatus; experiment: in vitro antifungal activity (MIC80), Aspergillus fumigatus; conditions: 80% growth inhibition vs negative control, RPMI 1640, read 48 hrs after application
Description: as §1, §2, §3, §4, §5

OC(Cn1cncn1)(Cn1cncn1)c1ccc(F)cc1F [Fluconazole, reference compound]
MIC80 [1]: 0.5 µg/mL (≈ 1.63 µM)
MIC80 [2]: 16 µg/mL (≈ 52.2 µM)
MIC80 [3]: 4 µg/mL (≈ 13.1 µM)
MIC80 [4]: 4 µg/mL (≈ 13.1 µM)
MIC80 [5]: 4 µg/mL (≈ 13.1 µM)
MIC80 [6]: > 32 µg/mL
MIC80 [7]: > 32 µg/mL
MIC80 [8]: > 32 µg/mL
MIC80 [9]: > 128 µg/mL

C[C@@H](c1ncncc1F)[C@](O)(Cn1cncn1)c1ccc(F)cc1F [Voriconazole, reference compound]
MIC80 [1]: 0.25 µg/mL (≈ 0.716 µM)
MIC80 [2]: 0.125 µg/mL (≈ 0.358 µM)
MIC80 [3]: ≤ 0.125 µg/mL
MIC80 [4]: 0.031 µg/mL (≈ 0.0887 µM)
MIC80 [5]: 0.5 µg/mL (≈ 1.43 µM)
MIC80 [6]: 0.25 µg/mL (≈ 0.716 µM)
MIC80 [7]: 2 µg/mL (≈ 5.73 µM)
MIC80 [8]: 0.5 µg/mL (≈ 1.43 µM)
MIC80 [9]: 0.25 µg/mL (≈ 0.716 µM)

C[C@@H](N1CCC(Oc2ncc(Br)cn2)CC1)[C@](O)(Cn1cncn1)c1ccc(F)cc1F [Example 32, (2R,3R)-3-(4-((5-bromopyrimidin-2-yl)oxy)piperidin-1-yl)-2-(2,4-difluorophenyl)-1-(1H-1,2,4-triazol-1-yl)butan-2-ol]
MIC80 [1]: ≤ 0.015 µg/mL
MIC80 [2]: ≤ 0.125 µg/mL
MIC80 [3]: 0.031 µg/mL (≈ 0.0609 µM)
MIC80 [4]: ≤ 0.015 µg/mL
MIC80 [5]: 0.125 µg/mL (≈ 0.245 µM)
MIC80 [6]: ≤ 0.015 µg/mL
MIC80 [7]: 0.125 µg/mL (≈ 0.245 µM)
MIC80 [8]: ≤ 0.015 µg/mL
MIC80 [9]: ≤ 0.125 µg/mL
